Test results as given in EP0356223A2, “HIV protease inhibitors useful for the treatment of aids” (MERCK & CO. INC., priority 1988, dated 1990).

Biological target: T1, HIV protease (Human immunodeficiency virus type 1 group M subtype B, UniProt P04585)
T1 construct: the protease expressed in Eschericia coli; made in house; host or cells: Escherichia coli
Test: Assay for Inhibition of Microbial Expressed Viral Protease
Assay type: biochemical
Conditions: protease expressed in Eschericia coli; peptide substrate Val-Ser-Gln-Asn-(betanapthyl)Ala-Pro-lie-Val 0.5 mg/ml; 50 mM Na acetate, pH 5.5, 30° C, 1 hr; HPLC readout
Procedure: Assay for Inhibition of Microbial Expressed Viral Protease
Inhibition studies of the reaction of the protease expressed in Eschericia coli with a peptide substrate [Val-Ser-Gln-Asn-(betanapthyl)Ala-Pro-lie-Val, 0.5 mg/ml at the time the reaction is initiated] were in 50 mM Na acetate, pH 5.5, at 30° C for 1 hr. Various concentrations of inhibitor in 1.0 ul DMSO were added to 25 ul of the peptide solution in water. The reaction is initiated by the addition of 15 ul of 0.33 nM protease (0.11 ng) in a solution of 0.133 M Na acetate pH 5.5 and 0.267% bovine serum albumin. The reaction was quenched with 160 ul of 5% phosphoric acid. Products of the reaction were separated by HPLC (VYDAC wide pore 5 cm C-18 reverse phase, acetonitrile gradient, 0.1% phosphoric acid). The extent of inhibition of the reaction was determined from the peak heights of the products.

IC50	SMILES
0.5 to 10 nM	O=C(O)CCC(=O)N[C@@H](Cc1ccccc1)[C@@H](O)C[C@@H](Cc1ccccc1)C(=O)N[C@H]1c2ccccc2C[C@H]1O [Compound G, N-(2(R)-hydroxy-1 (S)-indanyl)-N'-(succinoyl)-5(S)-amino-4(S)-hydroxy-6-phenyl-2(R)-(phenylmethyl)-hexanamide]
0.5 to 10 nM	O=C1CC[C@@H](C(=O)N[C@@H](Cc2ccccc2)[C@@H](O)C[C@@H](Cc2ccccc2)C(=O)N[C@H]2c3ccccc3C[C@H]2O)O1 [Compound J, N-(2(R)-hydroxy-1 (S)-indanyl)-N'-(5-oxo-2(S)-tetrahydrofuranylcarbonyl)-5(S)-amino-4(S)-hydroxy-6-phenyl-2(R)-(phenylmethyl)hexanamide]
0.5 to 10 nM	CS(=O)(=O)N[C@@H](Cc1ccccc1)[C@@H](O)C[C@@H](Cc1ccccc1)C(=O)N[C@H]1c2ccccc2C[C@H]1O [Compound H, N-(2(R)-hydroxy-1 (S)-indanyl)-N'-(methanesulfonyl)-5(S)-amino-4(S)-hydroxy-6-phenyl-2(R)-(phenylmethyl)-hexanamide]
0.5 to 10 nM	CC[C@H](C)[C@H](NC(=O)[C@H](Cc1ccccc1)C[C@H](O)[C@H](Cc1ccccc1)NC(=O)CCC(=O)O)C(=O)NCc1ccccc1 [Compound F, N-benzyl-N'-(succinoyl)-5(S)-amino-4(S)-hydroxy-6-phenyl-2(R)-(phenylmethyl)hexanoyl isoleucyl amide]
